From article PMC4145316, “Cytotoxic and Apoptosis-Inducing Activity of Triterpene Glycosides from Holothuria scabra and Cucumaria frondosa against HepG2 Cells” (Marine Drugs, 2014)
Converted amounts (≈) assume the structure as drawn.

What was measured:
[1] = test system: human cervical cancer (HeLa) cells; assay: MTT cytotoxicity assay, HeLa cells; assay type: cell-based; conditions: means ± SD (n = 3); for IC50: Homo sapiens, HeLa, read-out: IC50 (μg/mL) HeLa
Procedure: (§1) Human hepatoma (HepG2), human cervical cancer (HeLa), human leukemia (K562) and human liver (HL-7702) cells were obtained by Shanghai Institute of Biochemistry and Cell Biology, and maintained in the logarithmic phase of growth in RPMI-1640 complete medium supplemented with 2 mM L-glutamine (Sigma Chemical Co., Saint Louis, MO, USA), 100 IU/mL penicillin, 100 μg/mL streptomycin and 10% FCS at 37 °C under humidified air with 5% CO2.
(§2) The effect of compounds 1–13 on the viability of HepG2, HeLa, K562 and HL-7702 cells was determined by MIT assay as described previously. Briefly, the tumor and normal cells were seeded at 1 × 10^4 cells/well in a 96-well microtiter plate and incubated at 37 °C in a humidified atmosphere with 5% CO2. After 24 h, compounds 1–13, the positive drug CDDP or RPMI-1640 medium were added into each well, and the plates were incubated at 37 °C for the indicated time. Each concentration was repeated four wells. 50 μL of MTT solution (2 mg/mL) was added to each well 4 h before incubation end, and incubated further for 4 h. The plates were centrifuged (1400× g, 5 min) and the untransformed MTT was removed carefully by pipetting. To each well, 150 μL of DMSO was added and the absorbance was evaluated in an ELISA reader at 570 nm after 15 min. The inhibitory rates and 50% inhibitory concentrations (IC50) values towards cell viability were calculated by NDST software. Each test was performed in triplicate.

[2] = test system: human liver (HL-7702) cells; assay: MTT cytotoxicity assay, normal HL-7702 cells; assay type: cell-based; conditions: for IC50 (μg/mL) HL-7702 / IC50: MTT assay, normal hepatocytes, means ± SD (n = 3); for Ratio (HL-7702/HepG2): ratio of IC50 values against HL-7702 and HepG2 cells, selective cytotoxicity; for IC50: Homo sapiens, L02, read-out: IC50 (μg/mL) HL-7702
Procedure: as §1, §2

[3] = test system: human leukemia (K562) cells; assay: MTT cytotoxicity assay, K562 cells; assay type: cell-based; conditions: for IC50 (μg/mL) K562: means ± SD (n = 3); for IC50: Homo sapiens, K562, means ± SD (n = 3), read-out: IC50 (μg/mL) K562
Procedure: as §1, §2

[4] = test system: human hepatoma (HepG2) cells; assay: MTT cytotoxicity assay, HepG2 cells; assay type: cell-based; conditions: for IC50 (μg/mL) HepG2: means ± SD (n = 3); for IC50: Homo sapiens, HepG2, means ± SD (n = 3), read-out: IC50 (μg/mL) HepG2
Procedure: as §1, §2

[5] = test system: human gastric cancer MKN-45 cells; conditions: read-out: IC50 against MKN-45 cells; cited from earlier work
HeLa cells = test system: HeLa cells; set-up: method as in PMID 18288810; conditions: cited from earlier work

Compound | IC50 (μg/mL) HeLa [1] [µg/mL] | IC50 (μg/mL) HL-7702 [2] [µg/mL] | Ratio (HL-7702/HepG2) [2] | IC50 (μg/mL) K562 [3] [µg/mL] | IC50 (μg/mL) HepG2 [4] [µg/mL] | IC50 [5] [nM] | IC50 against HeLa cells (HeLa cells) [µg/mL] | IC50 [1] [µg/mL] | IC50 [2] [µg/mL] | IC50 [3] [µg/mL] | IC50 [4] [µg/mL] | Ratio (HL-7702/HepG2) ([2]; listed as 10)
Scabraside B [Scabraside B (9)] | 4.44 ± 0.85 | 11.03 ± 1.37 | 1.51 | 11.85 ± 2.26 | 7.29 ± 0.62 |  |  |  |  |  |  | 
C[C@H]1O[C@@H](O[C@H]2[C@H](O[C@H]3CC[C@]4(C)C5=C[C@H](O)C67C(=O)O[C@@](C)(C8CCC(C)(C)O8)[C@@]6(O)CC[C@@]7(C)[C@@H]5CCC4C3(C)C)OC[C@@H](OS(=O)(=O)[O-])[C@@H]2O)[C@H](O)[C@@H](O)[C@@H]1O.[Na+] (stereo partly drawn) [Holothurin B (3), Holothurin B] | 2.05 ± 0.11 | 2.69 ± 0.45 | 1.50 | 3.64 ± 0.04 | 1.79 ± 0.02 | 1590 |  |  |  |  |  | 
okhotosides B2 |  |  |  |  |  |  | 13.0 |  |  |  |  | 
24-Dehydro frondoside A6 [24-Dehydro frondoside A6 (13)] | 3.16 ± 0.34 | 7.55 ± 0.83 | 2.12 | 5.61 ± 1.05 | 3.57 ± 0.54 |  |  |  |  |  |  | 
N.N.[Cl][Pt][Cl] [CDDP, cis-diamminedichloroplatinum, reference compound] | 3.41 ± 0.37 | 4.48 ± 0.41 | 2.18 | 2.99 ± 0.24 | 2.05 ± 0.13 |  |  |  |  |  |  | 
Scabraside D [Scabraside D (8)] | 3.84 ± 0.42 | 4.40 ± 0.22 | 1.32 | 10.06 ± 1.06 | 3.33 ± 0.33 |  |  |  |  |  |  | 
CO[C@@H]1[C@@H](O)[C@H](O[C@@H]2[C@@H](O)[C@H](O[C@H]3[C@H](O)[C@@H](O)[C@H](O[C@H]4[C@H](O[C@H]5CC[C@]6(C)C7=C[C@H](O)C89C(=O)O[C@@](C)(CCC=C(C)C)[C@@]8(O)CC[C@@]9(C)C7CCC6C5(C)C)OC[C@@H](OS(=O)(=O)[O-])[C@@H]4O)O[C@@H]3C)O[C@H](CO)[C@H]2O)O[C@H](CO)[C@H]1O.[Na+] (stereo partly drawn) [24-Dehydro echinoside A (2), 24-Dehydro echinoside A] | 2.06 ± 0.27 | 3.75 ± 0.40 | 1.92 | 6.15 ± 0.24 | 1.95 ± 0.09 | 1600 |  |  |  |  |  | 
CO[C@@H]1[C@@H](O)[C@H](O[C@@H]2[C@@H](O)[C@H](O[C@H]3[C@H](O)[C@@H](O)[C@H](O[C@H]4[C@H](O[C@H]5CC[C@]6(C)C7=C[C@H](O)[C@@]89C(=O)O[C@@](C)(C%10CCC(C)(C)O%10)[C@@]8(O)CC[C@@]9(C)[C@@H]7CC[C@H]6C5(C)C)OC[C@@H](OS(=O)(=O)O)[C@@H]4O)O[C@@H]3C)O[C@H](CO)[C@H]2O)O[C@H](CO)[C@H]1O (stereo partly drawn) [Holothurin A (6), Holothurin A] |  |  | 1.11 |  |  | 2370 |  | 3.76 ± 0.47 (≈ 3.14 µM) | 3.85 ± 0.32 (≈ 3.21 µM) | 8.94 ± 0.01 (≈ 7.45 µM) | 3.46 ± 0.33 (≈ 2.88 µM) | 
HS-1 [HS-1 (5)] | 3.20 ± 0.32 | 7.19 ± 0.20 | 1.18 | 12.95 ± 1.54 | 6.10 ± 0.33 |  |  |  |  |  |  | 
CO[C@@H]1[C@@H](O)[C@H](O[C@@H]2[C@@H](O)[C@H](O[C@H]3[C@H](O)[C@@H](O[C@@H]4OC[C@@H](O)[C@H](O)[C@H]4O)[C@H](O[C@H]4[C@H](OC5CC[C@]6(C)[C@H]7CCC89C(=O)O[C@@](C)(CCCC(C)C)C8[C@@H](OC(C)=O)C[C@@]9(C)C7=CC[C@H]6C5(C)C)OC[C@@H](OS(=O)(=O)O)[C@@H]4O)O[C@@H]3C)OC[C@H]2O)O[C@H](CO)[C@H]1O (stereo partly drawn) [Frondoside A (11), Frondoside A] |  |  | 1.31 |  |  |  |  | 3.3 ± 0.05 (≈ 2.51 µM) | 5.42 ± 0.98 (≈ 4.13 µM) | 3.76 ± 0.05 (≈ 2.86 µM) | 4.14 ± 0.57 (≈ 3.15 µM) | 
Holothurin B4 [Holothurin B4 (4)] | 2.71 ± 0.54 | 4.58 ± 0.54 | 1.69 | 3.55 ± 0.53 | 2.71 ± 0.12 |  |  |  |  |  |  | 
CO[C@@H]1[C@@H](O)[C@H](O[C@@H]2[C@@H](O)[C@H](O[C@H]3[C@H](O)[C@@H](O)[C@H](O[C@H]4[C@H](O[C@H]5CC[C@]6(C)C7=C[C@H](O)[C@]89C(=O)O[C@@](C)(C(O)CCC(C)C)[C@@]8(O)CC[C@@]9(C)[C@@H]7CC[C@H]6C5(C)C)OC[C@@H](OS(=O)(=O)[O-])[C@@H]4O)O[C@@H]3C)O[C@H](CO)[C@H]2O)O[C@H](CO)[C@H]1O.[Na+] (stereo partly drawn) [Holothurin A1 (7), Holothurin A1] | 2.84 ± 0.09 | 3.59 ± 0.05 | 1.24 | 6.50 ± 0.01 | 2.90 ± 0.21 |  |  |  |  |  |  | 
CO[C@@H]1[C@@H](O)[C@H](CO)O[C@@H](O[C@H]2[C@@H](O)[C@@H](O[C@H]3[C@@H](O)[C@@H](O[C@H]4OC[C@@H](O)[C@@H](O)[C@@H]4O)[C@H](O[C@H]4[C@H](O[C@H]5CC[C@@]6(C)[C@H](CC=C7[C@@H]6CC[C@]68C(=O)O[C@](C)(CCCC(C)C)[C@H]6[C@H](OC(C)=O)C[C@@]78C)C5(C)C)OC[C@@H](OS(=O)(=O)O)[C@H]4O)O[C@@H]3C)OC[C@@H]2O)[C@@H]1O [Frondoside A1 (10), Frondoside A1] | 2.03 ± 0.17 (≈ 1.55 µM) | 4.96 ± 1.10 (≈ 3.78 µM) | 2.60 | 2.21 ± 0.56 (≈ 1.68 µM) | 1.91 ± 0.03 (≈ 1.45 µM) |  |  |  |  |  |  | more than 2
CC(C)CCC[C@]1(C)OC(=O)C23[C@@H](O)C=C4[C@@H](CC[C@H]5C(C)(C)C(O[C@@H]6OC[C@@H](OS(=O)(=O)O)[C@H](O)[C@H]6O[C@@H]6O[C@H](C)[C@@H](O)[C@H](O)[C@H]6O)CC[C@]45C)[C@]2(C)CC[C@@]31O (stereo partly drawn) [echinoside B, reference compound] |  |  |  |  |  | 180 |  |  |  |  |  | 
Frondoside A6 [Frondoside A6 (12)] | 3.75 ± 0.51 | 6.05 ± 0.67 | 2.39 | 6.59 ± 0.11 | 2.53 ± 0.66 |  |  |  |  |  |  | 
okhotosides B3 |  |  |  |  |  |  | 17.8 |  |  |  |  | 
